Patent US20040185500A1, “Use of disease-associated gene” (priority 2001, published 2004)

Target: T1, human CLCA4-expressing CHO cells (Homo sapiens, UniProt Q14CN2)
T1 construct: expressed in transfected cells
T1 sequence (Q14CN2 22-919): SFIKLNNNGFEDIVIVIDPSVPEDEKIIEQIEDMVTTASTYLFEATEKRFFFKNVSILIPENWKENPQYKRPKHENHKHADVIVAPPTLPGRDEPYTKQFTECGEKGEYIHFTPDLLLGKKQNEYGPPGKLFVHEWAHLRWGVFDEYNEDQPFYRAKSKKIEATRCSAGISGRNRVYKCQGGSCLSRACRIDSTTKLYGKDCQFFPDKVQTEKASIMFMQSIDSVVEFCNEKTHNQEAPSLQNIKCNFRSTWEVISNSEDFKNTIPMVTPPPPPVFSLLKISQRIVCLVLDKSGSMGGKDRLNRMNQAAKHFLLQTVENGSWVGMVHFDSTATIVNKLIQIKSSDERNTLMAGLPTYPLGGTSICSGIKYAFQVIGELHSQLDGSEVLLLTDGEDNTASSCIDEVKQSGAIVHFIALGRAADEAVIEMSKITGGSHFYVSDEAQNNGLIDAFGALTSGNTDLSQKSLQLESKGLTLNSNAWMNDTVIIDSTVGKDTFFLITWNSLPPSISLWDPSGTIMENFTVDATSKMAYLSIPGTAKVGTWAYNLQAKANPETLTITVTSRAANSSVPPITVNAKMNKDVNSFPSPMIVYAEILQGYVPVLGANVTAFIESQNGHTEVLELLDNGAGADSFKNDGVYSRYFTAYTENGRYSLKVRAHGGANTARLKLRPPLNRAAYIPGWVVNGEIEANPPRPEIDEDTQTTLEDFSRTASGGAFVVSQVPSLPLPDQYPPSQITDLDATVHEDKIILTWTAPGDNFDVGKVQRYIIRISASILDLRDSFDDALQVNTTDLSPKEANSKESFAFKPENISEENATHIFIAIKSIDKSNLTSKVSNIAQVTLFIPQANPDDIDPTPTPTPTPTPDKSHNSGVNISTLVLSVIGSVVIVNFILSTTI
Experiment: Ca2+ dependent Cl- channel activity, FLIPR Membrane Potential Assay, ionomycin stimulation
Type: cell-based
Conditions: 2 μM ionomycin, compound added, then cells left for 10 min at room temperature, FIG. 3
Description: The ClCA4 expression plasmid pcDNA-hCLCA4 described in (2) above was introduced into CHO cells using FuGENE 6 (Roche Diagnostics) according to the manual accompanying it. The cells were subjected to selective culture in 1 mg/ml neomycin (G418) (Gibco BRL)-added MEM-α medium (Gibco BRL) for 10 days, and cells growing in this medium were obtained as CLCA4 expressing CHO cells. These CLCA4-expressing CHO cells and parent strain CHO cells were plated in 96-well black clear bottom plates (Corning) at 4×10^4 cells/well and cultured overnight. Cl^− channel activity was measured using FLIPR Membrane Potential Assay Kit (Molecular Device). A potential sensitive dye (Component A) diluted with 20 mM HEPES-containing HBSS buffer (Component B) was added to the plates at […] and reacted at 37° C. for 30 min. Then, the plates were set in FLIPR (Molecular Device) and, after addition of ionomycin (Wako Purechemical industries) at a final concentration of 2 μM, changes in fluorescence were observed as Cl^− channel activity. In both parent strain CHO cells and human CLCA4-expressing CHO cells, increase in fluorescence intensity was hardly recognized in the absence of stimulation. When stimulated with 2 μM ionomycin, increase in fluorescence intensity was observed only in human CLCA4-expressing CHO cells (FIG. 2). […]

SMILES: O=C(O)c1cccnc1Nc1cccc(C(F)(F)F)c1 [niflumic acid]
- increase in fluorescence intensity caused by stimulation with ionomycin (Cl- channel activity): inhibited
